CSCC[C@H](NC(=O)OCC1c2ccccc2-c2ccccc21)C(=O)O
solubility (mole fraction)
Settings | 283.15 K | 288.15 K | 293.15 K | 298.15 K | 303.15 K | 308.15 K | 313.15 K | 318.15 K | 323.15 K
in 2-butanone | 0.0269 | 0.0314 | 0.0336 | 0.0406 | 0.0454 | 0.0513 | 0.0621 | 0.0695 | 0.0818
in acetone | 0.0457 | 0.0475 | 0.0553 | 0.0614 | 0.0722 | 0.0806 | 0.0892 | 0.0961 | 0.11
in acetonitrile | 0.00368 | 0.00465 | 0.00571 | 0.00724 | 0.00847 | 0.00974 | 0.0111 | 0.0127 | 0.0155
in isobutanol | 0.00438 | 0.00573 | 0.00736 | 0.0102 | 0.0136 | 0.0165 | 0.023 | 0.032 | 0.0402
in isopentanol | 0.00409 | 0.00489 | 0.00573 | 0.00778 | 0.00996 | 0.0126 | 0.0154 | 0.02 | 0.0248
in isopropanol | 0.00635 | 0.00765 | 0.00792 | 0.00932 | 0.0142 | 0.0213 | 0.0326 | 0.0474 | 0.0669
in n-butanol | 0.0142 | 0.0178 | 0.0204 | 0.0237 | 0.0295 | 0.0339 | 0.0394 | 0.0478 | 0.0542
in n-butyl acetate | 0.0129 | 0.015 | 0.0173 | 0.0203 | 0.0242 | 0.028 | 0.0347 | 0.0426 | 0.0532
in n-pentanol | 0.00977 | 0.0117 | 0.0149 | 0.019 | 0.0272 | 0.033 | 0.0399 | 0.0514 | 0.0667
in n-propanol | 0.0101 | 0.0141 | 0.0172 | 0.0231 | 0.0271 | 0.0324 | 0.0407 | 0.0496 | 0.0542
in n-propyl acetate | 0.0155 | 0.0181 | 0.021 | 0.0252 | 0.0295 | 0.0361 | 0.0399 | 0.043 | 0.0456
in sec-butanol | 0.00898 | 0.0109 | 0.0152 | 0.0223 | 0.0311 | 0.0438 | 0.0506 | 0.0612 | 0.0868

Source: BigSolDB 2.1
